One test has as its system PRRSV-RESP strain. Put plainly: In vitro infectivity of PRRSV, plaque titration on Marc-145 cells. The test is classed as cell-based. To be noted: for In Vitro Infectivity: 60 minutes at 37° C. As to the method: The PRRSV are titrated for in vitro infectivity using the following procedure. Using the cell culture and transfer procedures above, Marc-145 cells are suspended in DMEM containing 10% FBS at a final density of 1.5×10^5 cell/mL. Two mL of the Marc-145 cell suspension are added to each well of a 6-well plate, and the plates are incubated overnight at 37° C. with 5% CO2. Virus samples are thawed in a 37° C. water bath, followed by centrifugation at 500×g for 10 minutes at 4° C. A 1/10 dilution series of viruses is prepared and stored at 4° C. until use, using EMEM as the dilution buffer.
When the Marc-145 cells are at least 90% confluent, the medium is removed, and 0.5 mL dilution buffer and 0.5 mL of the virus dilution are added into each well. For the negative control, 1.0 mL dilution buffer is used. The plates are gently shaken immediately after each dilution is added. Plates are incubated for 60-90 minutes at 37° C. in 5% CO2 and rocked every 15 minutes. Each well of each 6-well plate is then overlaid with 3 mL of a 1:4 mixture of 2.5% low melting point agarose in PBS solution and dilution buffer at 37° C. The plates are incubated at room temperature for 15 minutes to allow the overlay mixture to solidify, and then the plates are incubated at 37° C. with 5% CO2 for 96 hours.
Plaques are visualized using the following procedure. After the plaques are fully developed (96 hours post-infection), 1 mL 4% paraformaldehyde is added, and the plates are incubated at room temperature for 1 hour. Solubilized agarose is discarded, and 0.5 mL of 0.5% crystal violet is added to each well. The number of plaques is counted after 15 minutes of incubation with the crystal violet and converted to a titer based on the dilution factors.
Solvent and mock treatments are conducted according to the following procedure. One hundred μL aliquots of the concentrated PRRSV stock at about 1×10^9 PFU/mL are diluted into 900 μL PBS in Eppendorf tubes to achieve a final titer of 1.0-5.0×10^8 PFU/mL. […] Eppendorf tubes are then capped and sealed with parafilm. All the samples are secured in an SHZ-82 constant-temperature orbital air-bath shaker (Changzhou Guohua Appliance Co., China) preheated to 37° C. The solvent- and mock-treated samples are spun at an orbital rotation speed of 220 rpm at 37° C. for the desired time. The respective samples are spun in a micro-centrifuge for 1 minute, and the supernatants containing IFV are transferred to ultracentrifuge tubes. Tubes are centrifuged at 100,000×g (OPTIMA™ L-100XP centrifuge; Beckman Coulter, Inc., Indianapolis Ind.) for 30 minutes to pellet the PRRSV, and the supernatants are discarded. The PRRSV pellets are resuspended in 200 μL PBS and stored at −80° C. until further analyses.
The protein content of the delipidated and mock-treated PRRSV is determined using a BCA assay (PIERCE™ BCA Protein Assay Kit) according to the manufacturer's instructions. The cholesterol content also is determined using a cholesterol assay (Amplex® Red Cholesterol Assay Kit, Life Technologies, Grand Island, N.Y.) performed according to manufacturer's instruction. In vitro infectivity is measured using the same procedures as set forth above.
After ultracentrifugation, the mock-treated and delipidated samples are tested for in vitro infectivity in the Marc-145 cells, and protein and cholesterol contents are determined, using the procedures set forth above.

A further test has as its system PRRSV strain SD 11-21. Put plainly: Inactivation of vaccine virus stock, TCID50 virus titration. The test is classed as cell-based. The conditions noted are these: PRRSV SD 11-21, final 30 mM MBCD in two additions, 48 hours at room temperature.
Test [1] deals with human influenza virus H1N1 A/WSN/33 strain. Format: cell-based. The conditions noted are these: 50 mM MBCD.
The next test deals with PRRSV-RESP. Put plainly: Blind passage assay of delipidated PRRSV on Marc-145 cells. The conditions noted are these: 100 mM MBCD for 90 minutes. Format: cell-based.
The test system of test [2] is human influenza virus H1N1 A/WSN/33 strain. Put plainly: Hemagglutination (HA) activity of treated IFV with chicken red blood cells. The conditions noted are these: 50 mM MBCD. As to the method: Hemagglutination (HA) activity is determined as follows. Freshly isolated chicken blood is washed three times with PBS, and the red blood cells (RBC) are resuspended in PBS at a concentration of 1%. Virus dilutions (50 μL) are made in PBS and mixed with 50 μL of the RBC suspension. The mixture is added to individual wells in a 96-well plate and the RBC are allowed to settle for 45 minutes. The wells are judged to be HA negative (i.e. no agglutination of RBC) if a dot or pellet of RBC is present, and a well is judged to be positive if a smooth suspension of RBC is present.
In addition to MBCD, another lipid solvent, diisopropyl ether (DIPE) is used to delipidate IFV. […] After a brief centrifugation at 2,000×g for 3 minutes, visible solvent is removed, and the aqueous materials are left to dry in a fume hood for 20 minutes. The samples are then centrifuged at 200,000×g for 30 minutes to recover virus particles.

Like-named read-outs stand apart in the source and are kept apart here.

Consider methyl β-cyclodextrin [MBCD], for which, in the test on PRRSV-RESP strain (100 mM MBCD for 90 minutes), the “titer of delipidated PRRSV sample” value was “under the limit of detection”. Moreover, the “In Vitro Infectivity” value in the test on PRRSV-RESP strain (PRRSV-RESP, 5 mM MBCD) is 1.4 × 10^7 PFU/mL; with PRRSV-RESP strain (PRRSV-RESP, 10 mM MBCD) it was 7.0 × 10^6 PFU/mL; in the test on PRRSV-RESP strain (PRRSV-RESP, 20 mM MBCD), 2.8 × 10^6 PFU/mL; in the test on PRRSV-RESP strain (PRRSV-RESP, 30 mM MBCD), 1.2 × 10^5 PFU/mL; in the test on PRRSV-RESP strain (PRRSV-RESP, 50 mM MBCD), 4.2 × 10^4 PFU/mL. Further, in the test with PRRSV-RESP strain (PRRSV-RESP, 50 mM MBCD, 60 min at 37° C.), the PRRSV infectivity reduced result is recorded as “about 380 fold”. For the same substance, in the test on PRRSV strain SD 11-21, the “live virus in MBCD-inactivated virus solution” value is reported as “no live virus was detected”. Further, the “IFV infectivity reduced, compared to the mock-treatment” value in test [1] (37° C., 30 minutes, […]) stood at 2250 fold. Besides, the PFU/mL is 4.0 × 10^5 PFU/mL in test [1] (IFV, 37° C., 30 minutes) and 1.0 × 10^3 PFU/mL in test [1] (IFV, end-over-end rotation at 37° C. for 45 minutes). For the same substance, the “less infectious in vitro, compared to the mock treatment” value in test [1] (IFV, 45 minute treatment) is “over 10,000 fold”. In addition, the “plaques detected by the blind passage assay” value in the test with PRRSV-RESP is reported as “no plaques are detected”. Also, the HA units is 32 HA units in test [2] (37° C., 30 minutes) and 32 HA units in test [2] (end-over-end rotation at 37° C. for 45 minutes). Besides, the “effect on HA activity (in words)” value in test [2] (37° C., 30 minutes) is reported as “same degree as 2%-8% DIPE”; in test [2] (45 minutes), “not measurably affected”.

Source of the values: patent US10420831B2, “Inactivation of viruses by delipidation” (priority 2016, dated 2019).
